Results from patent publication US9981959B2, “Thiazolyl and oxazolyl urea, thiourea, guanidine and cyanoguanidine compounds as TrkA kinase inhibitors” (Array BioPharma Inc., priority 2012, dated 2018).

Legend:
Assay in all cases: KinaseProfiler off-target kinase profiling
Assay type in all cases: biochemical
Details in all cases: 10 μM, ATP near Km
MKK4_m = target: T1, MKK4_m (Mus musculus, UniProt P47809)
T1 construct: purchased Millipore, Inc. (KinaseProfiler service)
Description: (§1) A representative compound of the invention (Example 2) was tested for off-target kinase activity at a concentration of 10 μM by Millipore, Inc. in their KinaseProfiler™ service against all the kinases available in their full kinase panel. The compound was run in duplicate at a concentration of ATP near the Km for each individual kinase according to Millipore's specifications. The results are shown in Table B. Data are reported as percent of control (POC) and are the average of the two replicates.

CAMK2b = target: T2, CAMK2b (Homo sapiens, UniProt Q13554)
T2 construct: purchased Millipore (KinaseProfiler service)
Description: as §1

Fyn = target: T3, Fyn (Homo sapiens, UniProt P06241)
T3 construct: purchased Millipore, Inc. (KinaseProfiler service)
Description: as §1

ERK1 = target: T4, ERK1 (Homo sapiens, UniProt P27361)
T4 construct: purchased Millipore, Inc. (KinaseProfiler service)
Description: as §1

Plk1 = target: T5, Plk1 (Homo sapiens, UniProt P53350)
T5 construct: purchased Millipore, Inc. (KinaseProfiler service)
Description: as §1

FGFR4 = target: T6, FGFR4 (Homo sapiens, UniProt P22455)
T6 construct: purchased Millipore, Inc. (KinaseProfiler service)
Description: as §1

Ron = target: T7, Ron (Homo sapiens, UniProt Q04912)
T7 construct: purchased Millipore, Inc. (KinaseProfiler service)
T7 sequence (Q04912 25-1400): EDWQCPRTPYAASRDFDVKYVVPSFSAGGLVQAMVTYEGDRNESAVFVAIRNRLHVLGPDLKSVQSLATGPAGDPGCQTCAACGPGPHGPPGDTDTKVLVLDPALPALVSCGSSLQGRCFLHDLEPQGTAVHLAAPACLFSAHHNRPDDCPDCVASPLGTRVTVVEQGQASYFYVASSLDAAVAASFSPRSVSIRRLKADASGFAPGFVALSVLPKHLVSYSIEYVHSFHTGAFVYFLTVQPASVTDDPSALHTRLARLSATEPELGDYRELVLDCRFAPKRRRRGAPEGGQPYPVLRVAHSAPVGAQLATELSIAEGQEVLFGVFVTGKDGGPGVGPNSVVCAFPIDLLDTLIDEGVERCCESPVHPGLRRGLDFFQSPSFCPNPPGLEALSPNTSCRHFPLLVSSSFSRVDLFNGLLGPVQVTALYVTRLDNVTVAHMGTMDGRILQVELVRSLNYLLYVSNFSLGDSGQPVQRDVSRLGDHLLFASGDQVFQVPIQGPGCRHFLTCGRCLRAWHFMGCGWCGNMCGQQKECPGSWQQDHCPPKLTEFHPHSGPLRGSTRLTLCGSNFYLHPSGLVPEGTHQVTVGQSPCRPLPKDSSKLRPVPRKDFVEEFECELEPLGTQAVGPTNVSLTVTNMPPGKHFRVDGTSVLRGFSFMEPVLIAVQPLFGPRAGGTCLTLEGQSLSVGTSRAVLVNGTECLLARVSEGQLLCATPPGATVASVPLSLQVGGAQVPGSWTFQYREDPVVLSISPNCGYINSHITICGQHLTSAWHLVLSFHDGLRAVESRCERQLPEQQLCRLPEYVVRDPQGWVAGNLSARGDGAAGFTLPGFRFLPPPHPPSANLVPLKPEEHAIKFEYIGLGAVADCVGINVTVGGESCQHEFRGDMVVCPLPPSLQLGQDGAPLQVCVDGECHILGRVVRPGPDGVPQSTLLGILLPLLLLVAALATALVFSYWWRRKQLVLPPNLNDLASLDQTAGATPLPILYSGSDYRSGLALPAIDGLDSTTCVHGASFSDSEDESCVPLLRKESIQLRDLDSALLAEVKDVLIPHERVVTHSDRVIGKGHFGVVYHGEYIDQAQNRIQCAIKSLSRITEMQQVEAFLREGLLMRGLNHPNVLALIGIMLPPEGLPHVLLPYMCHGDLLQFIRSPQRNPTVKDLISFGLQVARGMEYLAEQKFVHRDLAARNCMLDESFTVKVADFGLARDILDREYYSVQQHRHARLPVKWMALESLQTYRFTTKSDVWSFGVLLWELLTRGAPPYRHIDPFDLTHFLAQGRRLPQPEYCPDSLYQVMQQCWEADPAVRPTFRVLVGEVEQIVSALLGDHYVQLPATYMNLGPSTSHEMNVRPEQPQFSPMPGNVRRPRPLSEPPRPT
Description: as §1

CDK2/cyclinA = target: T8, CDK2/cyclinA (Homo sapiens, UniProt P24941)
T8 construct: purchased Millipore (KinaseProfiler service)
Description: as §1

MARK1 = target: T9, MARK1 (Homo sapiens, UniProt Q9P0L2)
T9 construct: purchased Millipore, Inc. (KinaseProfiler service)
Description: as §1

Axl = target: T10, Axl (Homo sapiens, UniProt P30530)
T10 construct: purchased Millipore (KinaseProfiler service)
Description: as §1

AKT1 = target: T11, AKT1 (Homo sapiens, UniProt P31749)
T11 construct: purchased Millipore (KinaseProfiler service)
Description: as §1

PRK2 = target: T12, PRK2 (Homo sapiens, UniProt Q16513)
T12 construct: purchased Millipore, Inc. (KinaseProfiler service)
Description: as §1

Fms = target: T13, Fms (Homo sapiens, UniProt P07333)
T13 construct: purchased Millipore, Inc. (KinaseProfiler service)
Description: as §1

MAP4K2 = target: T14, MAP4K2 (Homo sapiens, UniProt Q12851)
T14 construct: purchased Millipore, Inc. (KinaseProfiler service)
T14 sequence (Q12851 whole entry): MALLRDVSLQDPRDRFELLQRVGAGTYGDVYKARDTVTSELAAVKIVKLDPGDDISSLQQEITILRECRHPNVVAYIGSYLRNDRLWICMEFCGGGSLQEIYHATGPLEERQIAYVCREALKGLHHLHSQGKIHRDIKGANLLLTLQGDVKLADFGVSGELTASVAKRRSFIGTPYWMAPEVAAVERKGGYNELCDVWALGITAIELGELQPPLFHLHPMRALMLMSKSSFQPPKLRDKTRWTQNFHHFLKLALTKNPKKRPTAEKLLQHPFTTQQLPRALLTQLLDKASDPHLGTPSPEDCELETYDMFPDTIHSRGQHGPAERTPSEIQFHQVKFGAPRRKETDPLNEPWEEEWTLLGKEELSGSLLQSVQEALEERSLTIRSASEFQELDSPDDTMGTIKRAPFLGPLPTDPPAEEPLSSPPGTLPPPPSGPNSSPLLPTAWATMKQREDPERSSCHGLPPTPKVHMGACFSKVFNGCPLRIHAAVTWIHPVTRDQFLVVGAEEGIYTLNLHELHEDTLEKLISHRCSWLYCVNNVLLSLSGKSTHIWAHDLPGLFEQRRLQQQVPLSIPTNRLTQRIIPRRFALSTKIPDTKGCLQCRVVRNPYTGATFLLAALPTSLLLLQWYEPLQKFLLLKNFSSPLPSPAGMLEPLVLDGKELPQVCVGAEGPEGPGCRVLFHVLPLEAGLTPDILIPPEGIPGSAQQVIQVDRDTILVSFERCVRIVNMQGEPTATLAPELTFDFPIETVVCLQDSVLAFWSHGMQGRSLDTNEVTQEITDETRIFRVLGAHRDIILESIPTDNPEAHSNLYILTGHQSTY
Description: as §1

SIK = target: T15, SIK (Homo sapiens, UniProt P57059)
T15 construct: purchased Millipore, Inc. (KinaseProfiler service)
Description: as §1

KIT = target: T16, KIT (Homo sapiens, UniProt P10721)
T16 construct: purchased Millipore, Inc. (KinaseProfiler service)
Description: as §1

Rsk3 = target: T17, Rsk3 (Homo sapiens, UniProt Q15349)
T17 construct: purchased Millipore, Inc. (KinaseProfiler service)
Description: as §1

LIMK1 = target: T18, LIMK1 (Homo sapiens, UniProt P53667)
T18 construct: purchased Millipore, Inc. (KinaseProfiler service)
Description: as §1

TAO2 = target: T19, TAO2 (Homo sapiens, UniProt Q9UL54)
T19 construct: purchased Millipore, Inc. (KinaseProfiler service)
T19 sequence (Q9UL54 whole entry): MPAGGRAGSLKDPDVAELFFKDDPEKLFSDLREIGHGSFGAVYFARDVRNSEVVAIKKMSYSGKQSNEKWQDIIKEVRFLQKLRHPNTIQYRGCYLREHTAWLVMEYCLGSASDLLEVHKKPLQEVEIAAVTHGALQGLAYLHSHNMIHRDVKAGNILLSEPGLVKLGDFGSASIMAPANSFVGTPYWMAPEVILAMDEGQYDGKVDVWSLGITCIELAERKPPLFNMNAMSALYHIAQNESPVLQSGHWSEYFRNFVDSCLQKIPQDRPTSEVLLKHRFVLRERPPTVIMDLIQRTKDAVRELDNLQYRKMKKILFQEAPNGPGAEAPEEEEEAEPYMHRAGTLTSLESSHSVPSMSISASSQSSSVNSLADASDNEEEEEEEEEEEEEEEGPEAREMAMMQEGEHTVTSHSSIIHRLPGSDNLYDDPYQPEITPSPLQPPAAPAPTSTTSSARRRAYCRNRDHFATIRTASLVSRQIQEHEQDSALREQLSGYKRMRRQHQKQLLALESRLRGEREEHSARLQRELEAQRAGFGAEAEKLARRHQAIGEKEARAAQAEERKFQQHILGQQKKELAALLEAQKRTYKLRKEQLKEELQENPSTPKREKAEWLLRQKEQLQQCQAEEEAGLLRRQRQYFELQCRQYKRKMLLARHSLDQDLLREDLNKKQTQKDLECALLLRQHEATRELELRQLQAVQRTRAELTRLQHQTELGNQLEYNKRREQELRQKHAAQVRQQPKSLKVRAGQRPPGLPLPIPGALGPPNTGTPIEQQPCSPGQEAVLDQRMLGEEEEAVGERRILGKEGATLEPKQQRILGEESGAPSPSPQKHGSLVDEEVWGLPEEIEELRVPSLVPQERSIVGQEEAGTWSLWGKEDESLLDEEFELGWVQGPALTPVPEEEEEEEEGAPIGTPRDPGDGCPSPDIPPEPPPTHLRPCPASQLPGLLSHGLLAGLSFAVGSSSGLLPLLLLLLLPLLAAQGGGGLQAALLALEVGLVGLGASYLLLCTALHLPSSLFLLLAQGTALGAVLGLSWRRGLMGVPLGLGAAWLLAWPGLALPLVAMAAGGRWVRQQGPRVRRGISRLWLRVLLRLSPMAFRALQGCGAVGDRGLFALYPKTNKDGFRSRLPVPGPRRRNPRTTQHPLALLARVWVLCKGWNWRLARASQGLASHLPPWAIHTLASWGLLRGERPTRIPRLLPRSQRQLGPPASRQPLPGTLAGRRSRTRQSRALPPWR
Description: as §1

TBK1 = target: T20, TBK1 (Homo sapiens, UniProt Q9UHD2)
T20 construct: purchased Millipore, Inc. (KinaseProfiler service)
Description: as §1

CLK2 = target: T21, CLK2 (Homo sapiens, UniProt P49760)
T21 construct: purchased Millipore, Inc. (KinaseProfiler service)
Description: as §1

Met = target: T22, Met (Homo sapiens, UniProt P08581)
T22 construct: purchased Millipore, Inc. (KinaseProfiler service)
Description: as §1

PDGFRalpha = target: T23, PDGFRalpha (Homo sapiens, UniProt P16234)
T23 construct: purchased Millipore, Inc. (KinaseProfiler service)
Description: as §1

Plk3 = target: T24, Plk3 (Homo sapiens, UniProt Q9H4B4)
T24 construct: purchased Millipore, Inc. (KinaseProfiler service)
Description: as §1

Flt3 = target: T25, Flt3 (Homo sapiens, UniProt P36888)
T25 construct: purchased Millipore, Inc. (KinaseProfiler service)
Description: as §1

CK1gamma3 = target: T26, CK1gamma3 (Homo sapiens, UniProt Q9Y6M4)
T26 construct: purchased Millipore, Inc. (KinaseProfiler service)
Description: as §1

LKB1 = target: T27, LKB1 (Homo sapiens, UniProt Q15831)
T27 construct: purchased Millipore, Inc. (KinaseProfiler service)
Description: as §1

WNK3 = target: T28, WNK3 (Homo sapiens, UniProt Q9BYP7)
T28 construct: purchased Millipore, Inc. (KinaseProfiler service)
Description: as §1

PhKgamma2 = target: T29, PhKgamma2 (Homo sapiens, UniProt P15735)
T29 construct: purchased Millipore, Inc. (KinaseProfiler service)
T29 sequence (P15735 whole entry): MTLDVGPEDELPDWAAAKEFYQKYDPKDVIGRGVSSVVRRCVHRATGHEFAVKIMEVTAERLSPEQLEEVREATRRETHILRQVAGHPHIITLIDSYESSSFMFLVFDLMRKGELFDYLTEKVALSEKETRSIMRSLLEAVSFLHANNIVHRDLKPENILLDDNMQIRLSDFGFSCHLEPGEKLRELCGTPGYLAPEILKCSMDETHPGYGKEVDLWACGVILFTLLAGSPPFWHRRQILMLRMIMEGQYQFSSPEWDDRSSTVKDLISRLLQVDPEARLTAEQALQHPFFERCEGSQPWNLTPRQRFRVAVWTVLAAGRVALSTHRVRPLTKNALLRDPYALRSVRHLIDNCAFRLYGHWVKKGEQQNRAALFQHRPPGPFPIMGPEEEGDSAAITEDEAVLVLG
Description: as §1

Haspin = target: T30, Haspin (Homo sapiens, UniProt Q8TF76)
T30 construct: purchased Millipore, Inc. (KinaseProfiler service)
Description: as §1

PAK2 = target: T31, PAK2 (Homo sapiens, UniProt Q13177)
T31 construct: purchased Millipore, Inc. (KinaseProfiler service)
T31 sequence (Q13177 whole entry): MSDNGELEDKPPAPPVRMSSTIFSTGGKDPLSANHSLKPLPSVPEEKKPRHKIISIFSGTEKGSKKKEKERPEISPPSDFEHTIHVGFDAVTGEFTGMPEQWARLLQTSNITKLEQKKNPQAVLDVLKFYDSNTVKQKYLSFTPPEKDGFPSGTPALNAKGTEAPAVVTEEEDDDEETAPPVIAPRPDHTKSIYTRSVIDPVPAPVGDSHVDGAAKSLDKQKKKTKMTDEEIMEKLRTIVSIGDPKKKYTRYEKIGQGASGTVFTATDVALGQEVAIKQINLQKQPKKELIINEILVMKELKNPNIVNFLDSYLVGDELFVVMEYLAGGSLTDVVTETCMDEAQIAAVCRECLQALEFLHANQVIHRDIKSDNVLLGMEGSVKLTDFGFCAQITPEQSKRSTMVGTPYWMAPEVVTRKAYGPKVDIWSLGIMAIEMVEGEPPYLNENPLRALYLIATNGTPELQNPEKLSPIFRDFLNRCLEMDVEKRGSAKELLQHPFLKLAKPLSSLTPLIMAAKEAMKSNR
Description: as §1

PKAC-alpha = target: T32, PKAC-alpha (Homo sapiens, UniProt P17612)
T32 construct: purchased Millipore, Inc. (KinaseProfiler service)
Description: as §1

GRK5 = target: T33, GRK5 (Homo sapiens, UniProt P34947)
T33 construct: purchased Millipore, Inc. (KinaseProfiler service)
Description: as §1

MKK7beta = target: T34, MKK7beta (Homo sapiens, UniProt O14733)
T34 construct: purchased Millipore, Inc. (KinaseProfiler service)
Description: as §1

IRAK1 = target: T35, IRAK1 (Homo sapiens, UniProt P51617)
T35 construct: purchased Millipore, Inc. (KinaseProfiler service)
T35 sequence (P51617 whole entry): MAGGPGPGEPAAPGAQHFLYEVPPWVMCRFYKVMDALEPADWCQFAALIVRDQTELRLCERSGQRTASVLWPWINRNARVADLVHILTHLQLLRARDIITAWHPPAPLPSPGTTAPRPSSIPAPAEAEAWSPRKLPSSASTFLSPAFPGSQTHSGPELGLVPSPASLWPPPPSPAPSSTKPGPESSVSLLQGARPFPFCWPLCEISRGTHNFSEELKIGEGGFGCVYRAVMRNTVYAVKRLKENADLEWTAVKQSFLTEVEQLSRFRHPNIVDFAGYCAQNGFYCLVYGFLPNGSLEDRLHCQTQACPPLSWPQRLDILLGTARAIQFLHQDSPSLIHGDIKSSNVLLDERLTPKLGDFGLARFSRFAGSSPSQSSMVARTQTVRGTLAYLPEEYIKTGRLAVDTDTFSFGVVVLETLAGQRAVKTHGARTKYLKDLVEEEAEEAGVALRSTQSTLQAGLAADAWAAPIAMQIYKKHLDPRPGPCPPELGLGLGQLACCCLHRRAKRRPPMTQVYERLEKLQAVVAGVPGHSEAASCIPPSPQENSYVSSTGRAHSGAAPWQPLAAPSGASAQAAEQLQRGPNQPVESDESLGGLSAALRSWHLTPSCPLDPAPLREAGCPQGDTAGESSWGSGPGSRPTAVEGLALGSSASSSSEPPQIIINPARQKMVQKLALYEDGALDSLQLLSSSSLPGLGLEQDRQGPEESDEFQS
Description: as §1

BLK_m = target: T36, BLK_m (Mus musculus, UniProt P16277)
T36 construct: purchased Millipore (KinaseProfiler service)
Description: as §1

EphA4 = target: T37, EphA4 (Homo sapiens, UniProt P54764)
T37 construct: purchased Millipore, Inc. (KinaseProfiler service)
Description: as §1

FAK2 = target: T38, FAK2 (Homo sapiens, UniProt Q14289)
T38 construct: purchased Millipore, Inc. (KinaseProfiler service)
Description: as §1

TrkA = TrkA (Homo sapiens, UniProt P04629); parameters: purchased Millipore, Inc. (KinaseProfiler service)
Description: as §1, with “specifications.” for “specifications. The results are shown in Table B. Data are reported as percent of control (POC) and are the average of the two replicates.”

SMILES: Cc1c(-c2cnn(C)c2)nn(-c2ccccc2)c1NC(=O)Nc1sc(C(F)(F)F)nc1-c1ccccc1 [Example 2, 1-(1′,4-dimethyl-1-phenyl-1H,1′H-[3,4′-bipyrazol]-5-yl)-3-(4-phenyl-2-(trifluoromethyl)thiazol-5-yl)urea]
- Avg POC (MKK4_m): 73.5 POC
- Avg POC (CAMK2b): 102 POC
- Avg POC (Fyn): 105.5 POC
- Avg POC (ERK1): 96.5 POC
- Avg POC (Plk1): 103.5 POC
- Avg POC (FGFR4): 141.5 POC
- Avg POC (Ron): 110.5 POC
- Avg POC (CDK2/cyclinA): 122 POC
- Avg POC (MARK1): 107 POC
- Avg POC (Axl): 122.5 POC
- Avg POC (AKT1): 133 POC
- Avg POC (PRK2): 104.5 POC
- Avg POC (Fms): 89.5 POC
- Avg POC (MAP4K2): 121.5 POC
- Avg POC (SIK): 145 POC
- Avg POC (KIT): 102.5 POC
- Avg POC (Rsk3): 99 POC
- Avg POC (LIMK1): 102 POC
- Avg POC (TAO2): 123.5 POC
- Avg POC (TBK1): 100.5 POC
- Avg POC (CLK2): 118 POC
- Avg POC (Met): 120 POC
- Avg POC (PDGFRalpha): 102.5 POC
- Avg POC (Plk3): 105 POC
- Avg POC (Flt3): 98 POC
- Avg POC (CK1gamma3): 114 POC
- Avg POC (LKB1): 96.5 POC
- Avg POC (WNK3): 112.5 POC
- Avg POC (PhKgamma2): 108 POC
- Avg POC (Haspin): 112.5 POC
- Avg POC (PAK2): 98.5 POC
- Avg POC (PKAC-alpha): 134 POC
- Avg POC (GRK5): 82.5 POC
- Avg POC (MKK7beta): 143.5 POC
- Avg POC (IRAK1): 107.5 POC
- Avg POC (BLK_m): 112 POC
- Avg POC (EphA4): 109 POC
- Avg POC (FAK2): 107 POC
- Avg POC (TrkA): −1 POC
